This note sets out measurements from patent US20230278987A1, “Antimicrobial Compounds and Methods” (Curza Global, LLC, priority 2019, published 2023).

Test [1] has as its system S.aureus (Sa). Nature of the test: Broth microdilution MIC against S.aureus (Sa). It counts as cell-based. To be noted: for MIC: Staphylococcus aureus, read-out: Sa + bicarb 6.25 (MIC). The protocol: (§1) A certified BSL-2 laboratory was used for testing. Compounds were evaluated using the broth microdilution minimum inhibitory concentration (MIC) and minimum bactericidal concentration (MBC) assays defined by Clinical and Laboratory Standards Institute (CLSI) in the M26-A guideline against S.aureus (Sa), E.coli (Ec), K.pneumoniae (Kp), A.baumannii (Ab), E.faecalis (Ef) and P.aeruginosa (Pa).
(§2) MICs were determined using the Clinical Laboratory and Standards Institute (CLSI) Broth Microdilution Method with slight modification. Clinical and Laboratory Standards Institute (2012). “Methods for dilution antimicrobial susceptibility tests for bacteria that grow aerobically; approved standard, 9th ed. M07-A9. Clinical and Laboratory Standards Institute, Wayne, PA.” Serial two-fold dilutions of compounds are prepared in sterile clear roundbottom 96-well plates.
(§3) To prepare microdilution trays, two-fold dilutions of antimicrobial agent are prepared in growth medium: Cation-Adjusted Mueller-Hinton Broth (CAMHB), or CAMHB supplemented with sodium bicarbonate (6.25 or 25 mM final concentration prepared from a 1.0 M stock solution) or CAMHB supplemented with heat inactivated human serum (Fisher Cat. # BP2657100) 0-50% by adding 200 µL of the highest concentration to be tested (64 µg/mL, for example) in row A, mixing and transferring 100 µL from row A to 100 µL growth medium in row B, then repeating the mixing and transferring through row H of the 96-well plate, discarding the excess 100 µL remaining. This slight modification to the CLSI protocol enables evaluation of MICs for 3 compounds per plate in triplicate, albeit with only 8 compound dilutions (CLSI protocol enables 2 compounds in triplicate with 10 dilutions). Bacterial suspensions are added to a final concentration of 5 × 10^4 CFU/well by adding 5 µL of a 1:10 dilution of a 0.5 McFarland suspension (1 × 10^8 CFU/mL) for each bacterium evaluated. Bacterial suspensions were prepared using the growth method described by CLSI. Well-isolated colonies (3-5 from an agar plate) were selected using a sterile loop and used to inoculate a tube containing 4 mL of CAMHB. The cultures are incubated at 35 ± 2° C. until it achieves or exceeds the turbidity of the 0.5 McFarland standard, determined by measuring A600nm (usually two to six hours). When growth exceeds a 0.5 McFarland standard, the turbidity is adjusted with broth to be equivalent to a 0.5 McFarland standard.

The test system of test [2] is E.coli (Ec). Nature of the test: Broth microdilution MIC against E.coli (Ec). The class given is cell-based. To be noted: for MIC: Escherichia coli, read-out: E. coli + bicarb 6.25 (MIC). The protocol:
as §1, §2, §3

In test [3] the test system is P.aeruginosa (Pa). Nature of the test: Broth microdilution MIC against P.aeruginosa (Pa). It counts as cell-based. To be noted: for MIC: Pseudomonas aeruginosa. The protocol: as §1, §2, §3
Test [4] concerns A.baumannii (Ab). Nature of the test: Broth microdilution MIC against A.baumannii (Ab). It counts as cell-based. To be noted: for MIC: Acinetobacter baumannii, read-out: Ab +bicarb 6.25 (MIC). The protocol:
as §1, §2, §3

Test [5] concerns E.faecalis (Ef). Description: Broth microdilution MIC against E.faecalis (Ef). It counts as cell-based. To be noted: for MIC: Enterococcus faecalis, read-out: Ef +bicarb 6.25 (MIC). How it is done: as §1, §2, §3
The test system of test [6] is E.coli S30 extract (bacterial protein synthesis). Nature of the test: E.coli S30 extract: inhibition of bacterial protein synthesis (luciferase). It counts as biochemical. To be noted: 37° C. for 1 hour. The protocol:
E.coli S30 extract: Inhibition of bacterial protein synthesis was determined using the E.coli S30 Extract System for Circular DNA (Promega catalog #L-2010) and Luciferase Assay Reagent (Promega catalog #E1500) with slight modifications to a published protocol. Fyfe, C., Sutcliffe, J.A. and Grossman, T.H. (2012) “Development and characterization of a Pseudomonas aeruginosa in vitro coupled transcription-translation assay system for evaluation of translation inhibitors” J. Microbiol. Methods 90(3), 256-261.
Compounds were serial diluted in 0.5 mL microcentrifuge tubes by mixing and transferring 50 µL from the highest concentration to 50 µL of water, mixing and transferring 50 µL of this 2-fold dilution to 50 µL of water. This mixing and transferring was repeated so that there are a total of 8 tubes with serial dilutions of compound at 10× the desired screening concentration that are ultimately diluted to 1× by the addition of S30 luciferase synthesis mixture. Serial dilutions of compounds were added (2 µL) to wells in a black round bottom 96-well plate. Water (2 µL) was used as a “no inhibitor” control in 4 wells/plate. No DNA control reaction mixture (20 µL; see below) was used as a control in 4 wells/plate for background luminescence. S30 luciferase synthesis mixture (18 µL; see below) was added to wells with compounds or water mixture and incubated at 37° C. for 1 hour. Reactions were stopped by transferring to 4° C. refrigerator for 5 minutes then 25 µL of luciferase activity mix was added. Luminescence was measured using a BioTek Synergy HTX plate reader. % Inhibition was determined relative to no inhibitor controls.
S30 luciferase synthesis mixture: • 445 µL S30 extract, circular • 712 µL S30 Premix without amino acids • 4.45 µL pBESTluc™ DNA (1 µg/ µL) • 78 µL complete amino acid mixture • 267 µL water
No DNA control: • 20 µL S30 extract, circular • 32 µL S30 Premix without amino acids • 7 µL complete amino acid mixture • 21 µL water

The target in test [7] is Rabbit Reticulocyte Lysate (eukaryotic protein synthesis). Nature of the test: Rabbit Reticulocyte Lysate: inhibition of eukaryotic protein synthesis (luciferase). The class given is biochemical. The following applies: 30° C. for 90 minutes, read-out: retic. IC50. How it is done:
Inhibition of eukaryotic protein synthesis was determined using the Rabbit Reticulocyte Lysate System, Nuclease-Treated from Promega (catalog #L-4960) with slight modifications to the manufacturer’s protocol. Compounds were serial diluted in 0.5 mL microcentrifuge tubes by mixing and transferring 50 µL from the highest concentration to 50 µL of water, mixing and transferring 50 µL of this 2-fold dilution to 50 µL of water. This mixing and transferring was repeated so that there are a total of 8 tubes with serial dilutions of compound at 10× the desired screening concentration that are ultimately diluted to 1× by the addition of rabbit reticulocyte luciferase synthesis mixture. Serial dilutions of compounds were added (2.5 µL) to wells in a black round bottom 96-well plate. Water (2.5 µL) was used as a “no inhibitor” control in 4 wells/plate. No RNA control reaction mixture (2 µL; see below) was used as a control in 4 wells/plate for background luminescence. Rabbit reticulocyte luciferase synthesis mixture (22.5 µL; see below) was added to wells with compounds or water mixture and incubated at 30° C. for 90 minutes. Luciferase assay reagent (25 µL) was added with luminescence measured using a BioTek Synergy HTX plate reader. % Inhibition was determined relative to no inhibitor controls.
Rabbit reticulocyte luciferase synthesis mixture: • 1,000 µL rabbit reticulocyte lysate • 5.7 µL Luciferase Control RNA (1 µg/ µL) • 26 µL complete amino acid mixture • 395 µL water
No RNA Control • 70 µL rabbit reticulocyte lysate • 2 µL complete amino acid mixture • 28 µL water

Where [8] appears, read: CAMHB supplemented with sodium bicarbonate 6.25 mM.
The mark [9] stands for this setting: CAMHB supplemented with sodium bicarbonate 6.25 mM, read-out: Pa +bicarb 6.25 (MIC).
Where [10] appears, read: CAMHB supplemented with sodium bicarbonate 6.25 mM, Hydrochloride Salt.
The mark [11] stands for this setting: read-out: Pa +bicarb 6.25 (MIC).

Values after ≈ are worked out from the molar mass of the structure shown. Structures can show the parent of a compound that is named as a salt. Where two headings read alike, the source gives them in different places. A value given as a limit tells only on which side of the number the result lay.

On to `CC(C)(N)C(=O)N1CCN(C(=O)Nc2ccn(-c3ccc4c(c3)CCC(N[C@H]3CC[C@H](N)C3)C4)c(=O)n2)CC1` (single isomer, unassigned) [Compound 27, Hydrochloride Salt], for which the MIC is less than 8 µg/mL in test [1] (setting [8]); less than 8 µg/mL in test [2] (setting [8]); greater than 32 µg/mL in test [3] (setting [9]); greater than 32 µg/mL in test [4] (setting [8]); less than 8 µg/mL in test [5] (setting [8]). Also, the results for the IC50 in test [6] and in test [7] were less than 0.5 µM and no less than 1 µM, respectively.
`CC(C)(N)C(=O)N1CCN(C(=O)Nc2ccn(-c3ccc4c(c3)CCC(N[C@H]3CC[C@H](N)C3)C4)c(=O)n2)CC1` (single isomer, unassigned) [Compound 28, Hydrochloride Salt]: the “Sa + bicarb 6.25 (MIC)” value in test [1] (setting [8]) is on record as “+++ (An MIC value (µg/mL) that is less than 8 µg/mL)”. In addition, in test [2] (setting [8]), the “E. coli + bicarb 6.25 (MIC)” value is on record as “+++ (An MIC value (µg/mL) that is less than 8 µg/mL)”. The “Pa +bicarb 6.25 (MIC)” value in test [3] (setting [8]) is “+ (An MIC value (µg/mL) that is 32 µg/mL or greater)”. Also, in test [4] (setting [8]), the “Ab +bicarb 6.25 (MIC)” value was “+ (An MIC value (µg/mL) that is 32 µg/mL or greater)”. Moreover, the “Ef +bicarb 6.25 (MIC)” value in test [5] (setting [10]) was “++ (An MIC value (µg/mL) that is 8 µg/mL or greater and less than 32 µg/mL)”. Besides, the IC50 was less than 0.5 µM in test [6] and no less than 1 µM in test [7].
As for `CC(C)(N)C(=O)N1CCN(C(=O)Nc2ccn(-c3ccc4c(c3)CCC(N[C@H]3CC[C@@H](N)C3)C4)c(=O)n2)CC1` (single isomer, unassigned) [Compound 33, Hydrochloride Salt], the MIC was 8 to 32 µg/mL in test [1] (setting [8]); less than 8 µg/mL in test [2] (setting [8]); greater than 32 µg/mL in test [3] (setting [9]); greater than 32 µg/mL in test [4] (setting [8]); greater than 32 µg/mL in test [5] (setting [8]). The IC50 in test [6] was less than 0.5 µM; in test [7] it was no less than 1 µM.
As to `CC(C)(N)C(=O)N1CCN(C(=O)Nc2ccn(-c3ccc4c(c3)CCC(N[C@H]3CC[C@@H](N)C3)C4)c(=O)n2)CC1` (single isomer, unassigned) [Compound 34, Hydrochloride Salt], the “Sa + bicarb 6.25 (MIC)” value in test [1] (setting [10]) is “+++ (An MIC value (µg/mL) that is less than 8 µg/mL)”. The “E. coli + bicarb 6.25 (MIC)” value in test [2] (setting [8]) is on record as “+++ (An MIC value (µg/mL) that is less than 8 µg/mL)”. Also, the “Pa +bicarb 6.25 (MIC)” value in test [3] (setting [8]) is “+ (An MIC value (µg/mL) that is 32 µg/mL or greater)”. The “Ab +bicarb 6.25 (MIC)” value in test [4] (setting [8]) is recorded as “+ (An MIC value (µg/mL) that is 32 µg/mL or greater)”. Besides, in test [5] (setting [8]), the “Ef +bicarb 6.25 (MIC)” value is “+ (An MIC value (µg/mL) that is 32 µg/mL or greater)”. In addition, the IC50 in test [6] was less than 0.5 µM; in test [7], no less than 1 µM.
`CC(C)(N)C(=O)N1CCN(C(=O)Nc2ccn(-c3ccc4c(c3)CCC(N3C[C@@H]5[C@@H](N)[C@@H]5C3)C4)c(=O)n2)CC1` (stereo partly shown) [Compound 1]: the IC50 in test [6] and in test [7] was no less than 1 µM each time.
As for `CC(C)(N)C(=O)N1CCN(C(=O)Nc2ccn(-c3ccc4c(c3)CCC(N3CCC(N)CC3)C4)c(=O)n2)CC1` (stereo not shown) [Compound 2], the MIC in test [2] (setting [8]) is less than 8 µg/mL. Moreover, the IC50 was less than 0.5 µM in test [6] and no less than 1 µM in test [7].
On to `CC(C)(N)C(=O)N1CCN(C(=O)Nc2ccn(-c3ccc4c(c3)CCC(N3C[C@@H]5[C@@H](CN)[C@@H]5C3)C4)c(=O)n2)CC1` (stereo partly shown) [Compound 3], for which the half-maximal inhibitory concentration (IC50) in test [6] was less than 0.5 µM; in test [7] it was no less than 1 µM.
On to `CC(C)(N)C(=O)N1CCN(C(=O)Nc2ccn(-c3ccc4c(c3)CCC(N3CC[C@@H](CN)C3)C4)c(=O)n2)CC1` (stereo partly shown) [Compound 4], for which the MIC in test [3] (CAMHB supplemented with sodium bicarbonate 25 mM, read-out: Pa +bicarb 25 (MIC)) was in the range of 8 to 32 µg/mL (≈ 14.9 to 59.6 µM). For the same compound, the IC50 in test [6] is less than 0.5 µM; in test [7] it was no less than 1 µM.
Take `CC(C)(N)C(=O)N1CCN(C(=O)Nc2ccn(-c3ccc4c(c3)CCC(N3CC[C@H](CN)C3)C4)c(=O)n2)CC1` (stereo partly shown) [Compound 5]: the IC50 is less than 0.5 µM in test [6] and no less than 1 µM in test [7].
Consider `C[C@](N)(CO)C(=O)N1CCN(C(=O)Nc2ccn(-c3ccc4c(c3)CCC(N[C@H]3CC[C@H](N)C3)C4)c(=O)n2)CC1` (stereo partly shown) [Compound 24, Hydrochloride Salt], for which the minimum inhibitory concentration (MIC) was greater than 32 µg/mL in test [1]; less than 8 µg/mL in test [2]; greater than 32 µg/mL in test [3] (setting [11]); greater than 32 µg/mL in test [4]; greater than 32 µg/mL in test [5].
`CC(C)(N)C(=O)N1CCN(C(=O)Nc2ccn(-c3ccc4c(c3)CCC(N[C@H]3C[C@H](CN)C3)C4)c(=O)n2)CC1` (stereo partly shown) [Compound 41, Hydrochloride Salt]: the MIC in test [1] is 8 to 32 µg/mL; in test [2], less than 8 µg/mL; in test [3] (setting [11]), greater than 32 µg/mL; in test [4], greater than 32 µg/mL; in test [5], greater than 32 µg/mL.
Turning to `CC(C)(N)C(=O)N1CCN(C(=O)Nc2ccn(-c3ccc4c(c3)CCC(N[C@H]3C[C@@H](CN)C3)C4)c(=O)n2)CC1` (stereo partly shown) [Compound 44, Hydrochloride Salt], the MIC is greater than 32 µg/mL in test [1]; 8 to 32 µg/mL in test [2]; greater than 32 µg/mL in test [3] (setting [11]); greater than 32 µg/mL in test [4]; greater than 32 µg/mL in test [5].
